Data published in the supplement of paper PMC4932681.

Columns and labels:
[1] = test system: ZR-75-1; test: relative IC50 (midpoint of fitted logistic curve, plateau may be below 50% inhibition; CellTiter-Glo viability); higher = less potent; conditions: 72 h
Experimental: (§1)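 FIMM FO2B library drugs were plated at 5 concentrations spanning a 10,000-fold range in 384-well plates. Cells were incubated for 72 h at 37 °C and viability was read by CellTiter-Glo, normalised to DMSO (0% inhibition) and 100 µM benzethonium chloride (100% inhibition). IC50 values come from logistic dose-response fits (Breeze pipeline). Tamoxifen-resistant lines and the 'in 1µM tamoxifen' parental arms were tested in medium with 1 µM 4-OH-tamoxifen.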

[2] = test system: MCF-7; test: as above; conditions: 72 h
Experimental: as §1

[3] = test system: BT-474; test: as above; conditions: 72 h
Experimental: as §1

[4] = test system: T-47D Tam1; test: as above; conditions: 4-OH-tamoxifen in medium 1 µM; 72 h
Experimental: as §1

[5] = test system: MCF-7 Tam1; test: as above; conditions: 4-OH-tamoxifen in medium 1 µM; 72 h
Experimental: as §1

[6] = test system: BT-474 Tam1; test: as above; conditions: 4-OH-tamoxifen in medium 1 µM; 72 h
Experimental: as §1

[7] = test system: T-47D; test: as above; conditions: 72 h
Experimental: as §1

[8] = test system: BT-474 Tam2; test: as above; conditions: 4-OH-tamoxifen in medium 1 µM; 72 h
Experimental: as §1

[9] = test system: ZR-75-1; test: drug sensitivity score (DSS) (DSS (dimensionless)); higher = more sensitive; extreme values may be limits of the assay; conditions: 72 h
Experimental: (§2)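 FIMM FO2B library drugs were tested at 5 concentrations (10,000-fold range) for 72 h, with CellTiter-Glo viability normalised to DMSO and benzethonium chloride controls. The Drug Sensitivity Score (DSS) is computed from the fitted logistic dose-response curve (area-based; 0 = inactive). Resistant lines and the 'in 1µM tamoxifen' arms were tested in 1 µM 4-OH-tamoxifen.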

[10] = test system: MCF-7; test: as above; conditions: 72 h
Experimental: as §2

[11] = test system: BT-474; test: as above; conditions: 72 h
Experimental: as §2

[12] = test system: ZR-75-1 Tam2; test: as above; conditions: 4-OH-tamoxifen in medium 1 µM; 72 h
Experimental: as §2

[13] = test system: ZR-75-1 Tam1; test: as above; conditions: 4-OH-tamoxifen in medium 1 µM; 72 h
Experimental: as §2

[14] = test system: T-47D Tam1; test: as above; conditions: 4-OH-tamoxifen in medium 1 µM; 72 h
Experimental: as §2

[15] = test system: MCF-7 Tam1; test: as above; conditions: 4-OH-tamoxifen in medium 1 µM; 72 h
Experimental: as §2

[16] = test system: BT-474 Tam1; test: as above; conditions: 4-OH-tamoxifen in medium 1 µM; 72 h
Experimental: as §2

[17] = test system: T-47D; test: as above; conditions: 72 h
Experimental: as §2

[18] = test system: BT-474 Tam2; test: as above; conditions: 4-OH-tamoxifen in medium 1 µM; 72 h
Experimental: as §2

[19] = test system: T-47D Tam2; test: as above; conditions: 4-OH-tamoxifen in medium 1 µM; 72 h
Experimental: as §2

[20] = test system: ZR-75-1 Tam2; test: relative IC50 (midpoint of fitted logistic curve, plateau may be below 50% inhibition; CellTiter-Glo viability); higher = less potent; conditions: 4-OH-tamoxifen in medium 1 µM; 72 h
Experimental: as §1

[21] = test system: ZR-75-1 Tam1; test: as above; conditions: 4-OH-tamoxifen in medium 1 µM; 72 h
Experimental: as §1

Structure (SMILES)	relative IC50 ([1]; 4-OH-tamoxifen in medium 0 µM) [µM]	relative IC50 ([2]; 4-OH-tamoxifen in medium 0 µM) [µM]	relative IC50 ([2]; 4-OH-tamoxifen in medium 1 µM) [µM]	relative IC50 ([3]; 4-OH-tamoxifen in medium 0 µM) [µM]	relative IC50 [4] [µM]	relative IC50 [5] [µM]	relative IC50 [6] [µM]	relative IC50 ([7]; 4-OH-tamoxifen in medium 1 µM) [µM]	relative IC50 [8] [µM]	drug sensitivity score ([9]; 4-OH-tamoxifen in medium 0 µM)	drug sensitivity score ([9]; 4-OH-tamoxifen in medium 1 µM)	drug sensitivity score ([10]; 4-OH-tamoxifen in medium 0 µM)	drug sensitivity score ([10]; 4-OH-tamoxifen in medium 1 µM)	drug sensitivity score ([11]; 4-OH-tamoxifen in medium 0 µM)	drug sensitivity score ([11]; 4-OH-tamoxifen in medium 1 µM)	drug sensitivity score [12]	drug sensitivity score [13]	drug sensitivity score [14]	drug sensitivity score [15]	drug sensitivity score [16]	drug sensitivity score ([17]; 4-OH-tamoxifen in medium 0 µM)	drug sensitivity score ([17]; 4-OH-tamoxifen in medium 1 µM)	drug sensitivity score [18]	drug sensitivity score [19]	relative IC50 ([1]; 4-OH-tamoxifen in medium 1 µM) [µM]	relative IC50 ([3]; 4-OH-tamoxifen in medium 1 µM) [µM]	relative IC50 [20] [µM]	relative IC50 ([7]; 4-OH-tamoxifen in medium 0 µM) [µM]	relative IC50 [21] [µM]
C[C@]1(O)C[C@@H](c2nc(-c3ccc4ccc(-c5ccccc5)nc4c3)c3c(N)nccn32)C1 [Linsitinib (OSI-906)]	> 10	1.7	1.62	> 10	1.82	1.17	> 10	1.87	> 10	0	1.21	4.58	5.68	0	0.462	0.681	0.0832	7.18	3.94	0	2.48	2.45	0	1.19	–	–	–	–	–
NC(=O)c1ccc(I)c([N+](=O)[O-])c1	> 10	> 10	> 10	> 10	> 10	> 10	> 10	> 10	> 10	0	0	0	0	0	0	0	0	0	0	0	0	0	0	0.229	> 10	> 10	> 10	> 10	–
CO[C@H]1C[C@@H]2CC[C@@H](C)[C@@](O)(O2)C(=O)C(=O)N2CCCC[C@H]2C(=O)O[C@H]([C@H](C)C[C@@H]2CC[C@@H](O)[C@H](OC)C2)CC(=O)[C@H](C)/C=C(\C)[C@@H](O)[C@@H](OC)C(=O)[C@H](C)C[C@H](C)/C=C/C=C/C=C/1C [Sirolimus (Rapamycin)]	0.00184	0.00479	0.00486	–	0.00524	> 1	> 1	–	–	12.7	9.39	12.7	11.1	5.15	1.96	12.4	8.75	8.59	0	0	10.6	0.392	1.85	3.53	0.00235	–	0.002	0.00107	0.00448
C[C@@H]1C[C@H]2[C@@H]3CCC4=CC(=O)C=C[C@]4(C)[C@@]3(F)[C@@H](O)C[C@]2(C)[C@@]1(O)C(=O)CO [Dexamethasone  (Decadron)]	> 10	> 10	–	> 10	> 10	> 10	–	> 10	> 10	0	0	0	1.88	0	0	0.209	0	0	0	0	0	0	0	0	> 10	> 10	–	> 10	> 10
COC(=O)c1ccc2c(c1)NC(=O)/C2=C(\Nc1ccc(N(C)C(=O)CN2CCN(C)CC2)cc1)c1ccccc1 [Nintedanib (BIBF 1120)]	> 10	–	> 10	> 10	> 10	> 10	0.155	> 10	> 10	0	0	0.34	0	0	3.83	0	0	0	0	7.37	0	0	0	0.209	> 10	–	> 10	> 10	–
Cn1c(=O)n(-c2ccc(C(C)(C)C#N)cc2)c2c3cc(-c4cnc5ccccc5c4)ccc3ncc21 [Dactolisib (NVP-BEZ235)]	0.0093	0.00668	0.00894	–	0.00744	0.0527	0.0863	0.117	–	12.9	10.4	18.3	11.4	6.54	5.55	12.6	12.4	13.4	3.91	4.98	10.4	7.65	4.69	4.46	0.00917	0.0609	0.0139	0.0278	0.00716
NC(=O)c1cccc2cn(-c3ccc([C@@H]4CCCNC4)cc3)nc12 [MK-4827]	–	–	–	> 10	> 10	> 10	3.06	–	–	0.0039	0	0.385	1.11	0	0	0	0	0	0	2.21	0.34	1.04	0.615	0.764	> 10	> 10	> 10	–	> 10
N[C@@H](CSC(c1ccccc1)(c1ccccc1)c1ccccc1)C(=O)O [S-trityl-L-cysteine]	–	> 40	–	40	> 40	> 40	–	> 40	> 40	1.65	0	0	1.69	0	1.41	0.627	0	0	0	1.68	0.0068	0	0	0.0046	> 40	–	–	–	> 40
Cc1ccc(Nc2nccc(N(C)c3ccc4c(C)n(C)nc4c3)n2)cc1S(N)(=O)=O [Pazopanib]	> 10	> 10	–	> 10	> 10	> 10	–	> 10	> 10	0	0	0	0.177	0	0	0.0921	0	0	0	0.0636	0.231	0	0	0.821	–	> 10	–	–	> 10
COc1cc2nccc(Oc3ccc(NC(=O)C4(C(=O)Nc5ccc(F)cc5)CC4)cc3)c2cc1OC [Cabozantinib (XL184)]	> 1	> 1	–	> 1	> 1	> 1	–	> 1	> 1	0	0	0	0.282	0	0.138	0	0.0383	0	0	0.113	0	0	0	0.0065	> 1	–	> 1	> 1	–
Cc1ccc(-c2cc(C(F)(F)F)nn2-c2ccc(S(N)(=O)=O)cc2)cc1 [Celecoxib]	> 10	–	> 10	> 10	> 10	> 10	–	> 10	> 10	0	0.0083	0.0979	0	0	0	0	0	0	0	0.0337	0	0	0	0.335	–	> 10	> 10	> 10	> 10
Cc1ccc(NC(=O)c2ccc(CN3CCN(C)CC3)cc2)cc1Nc1nccc(-c2cccnc2)n1 [Imatinib]	> 10	> 10	–	> 10	> 10	> 10	4.03	> 10	–	0	0.933	0	0	0	0.471	0	0	0	0	1.97	0	0	1.21	0.454	–	–	> 10	–	> 10
Nc1ccn([C@@H]2O[C@H](CO)[C@@H](O)C2(F)F)c(=O)n1 [Gemcitabine]	–	–	–	> 1	> 1	> 1	> 1	> 1	> 1	6.28	0.865	5.69	0.509	0	0	0.493	0	0	0	0	4.36	0	0	0.815	–	> 1	–	0.0604	> 1
CN(C)CCN1C(=O)c2cccc3cc(N)cc(c23)C1=O [Amonafide]	3.51	3.26	–	> 10	> 10	> 10	> 10	> 10	> 10	1.49	0.169	2.63	0.126	0	0	0.594	0.0369	0	0	0	0.496	0	0	0	–	> 10	–	–	–
O=C1c2c(O)ccc(O)c2C(=O)c2c(NCCNCCO)ccc(NCCNCCO)c21 [Mitoxantrone]	–	> 1	> 1	> 1	0.0368	> 1	> 1	> 1	> 1	3.03	2.35	0	0	0	0	4.66	1.67	7.08	0	0	2.79	0	0	1.21	–	> 1	–	–	–
